What is called inhibition is the change of the read-out against control, counted positive when it falls.

The structures appear in SMILES notation. Bounds are passed on as bounds.

The target in the experiment is T1, FLT3 (Homo sapiens, UniProt P36888).
T1 sequence (P36888 27-993): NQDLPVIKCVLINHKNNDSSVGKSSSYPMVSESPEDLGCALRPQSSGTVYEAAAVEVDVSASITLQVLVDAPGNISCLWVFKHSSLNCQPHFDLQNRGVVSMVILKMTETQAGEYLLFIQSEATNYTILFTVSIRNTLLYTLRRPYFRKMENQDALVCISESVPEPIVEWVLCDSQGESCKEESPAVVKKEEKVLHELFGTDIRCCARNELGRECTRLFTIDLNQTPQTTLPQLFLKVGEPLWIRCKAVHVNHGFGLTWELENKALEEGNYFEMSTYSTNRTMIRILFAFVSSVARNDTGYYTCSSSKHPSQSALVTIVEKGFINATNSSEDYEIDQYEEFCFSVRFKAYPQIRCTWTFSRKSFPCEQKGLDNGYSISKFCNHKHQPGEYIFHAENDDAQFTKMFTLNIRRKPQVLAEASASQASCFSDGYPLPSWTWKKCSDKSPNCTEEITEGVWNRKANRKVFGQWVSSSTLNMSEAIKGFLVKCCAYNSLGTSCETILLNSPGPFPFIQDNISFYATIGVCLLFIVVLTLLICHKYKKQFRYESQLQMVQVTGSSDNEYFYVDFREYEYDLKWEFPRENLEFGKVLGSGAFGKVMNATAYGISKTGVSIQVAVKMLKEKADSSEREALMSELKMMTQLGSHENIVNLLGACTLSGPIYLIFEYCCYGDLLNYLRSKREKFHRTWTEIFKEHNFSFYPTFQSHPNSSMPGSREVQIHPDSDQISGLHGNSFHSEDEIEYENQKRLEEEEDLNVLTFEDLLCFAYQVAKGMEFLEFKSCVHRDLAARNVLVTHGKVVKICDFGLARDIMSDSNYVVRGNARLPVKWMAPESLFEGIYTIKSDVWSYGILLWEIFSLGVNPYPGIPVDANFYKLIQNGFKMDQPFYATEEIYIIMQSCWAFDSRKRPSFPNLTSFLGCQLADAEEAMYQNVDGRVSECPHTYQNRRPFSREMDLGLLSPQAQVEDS
Nature of the experiment: Kinase inhibition activity test, isotope labeling (γ-33P-ATP): FLT3. The format is biochemical. The note with it: test compound at a concentration of 10 μM. The protocol:
The purpose of this experiment was to test the inhibitory activity of the compound of the invention for in vitro kinase with the isotope labeling method (the γ phosphate group on ATP was labeled). In this experiment, the in vitro activity inhibition of such kinases as FLT3, VEGFR2, FLT1, FLT4, RET, c-RAF, B-RAF, c-KIT, PDGFα, PDGFβ, FGFR2, FGFR1, EphA2, EphB2, SRC, ABL, ALK and Met was tested respectively. Staurosporine was reference molecule (or referred to as positive control). The kinase inhibition activity of the test compound was expressed by half-inhibitory concentration (IC50) or the kinase activity inhibition rate of the test compound at a concentration of 10 μM. The IC50 value could be obtained by calculating the kinase activity inhibition rate of the test compound at different concentrations.
20 mM 3-(N-morpholinyl)propanesulfonic acid (MOPS); 1 mM ethylenediaminetetraacetic acid (EDTA), 0.01% Brij 35 (Brij-35), 5% glycerol, 0.1% mercaptoethanol, 1 mg/mL bovine serum albumin (BSA), 10 mM manganous dichloride solution (MnCl2), 0.1 mg/mL glutamic acid/tyrosine (4:1) polypeptide (poly(Glu, Tyr)4:1), 50 μM EAIYAAPFAKKK (substrate of FLT3), 0.33 mg/mL myelin basic protein (substrate of VEGFR2), 250 μM KKKSPGEYVNIEFG (substrate of FLT1(h)), 500 μM GGEEEEYFELVKKKK (substrate of FLT4(h)), 250 μM KKKSPGEYVNIEFG (substrate of RET), 0.66 mg/mL myelin basic protein (substrate of C-RAF), 250 μM GGMEDIYFEFMGGKKK (substrate of c-Kit), 250 μM GGMEDIYFEFMGGKKK (substrate of PDGFα), 250 μM KKKSPGEYVNIEFG (substrate of FGFR1), […] GGEEEEYFELVKKKK (substrate of SRC), 50 μM EAIYAAPFAKKK (substrate of ABL), 250 μM KKKSPGEYVNIEFG (substrate of ALK), 250 μM KKKSPGEYVNIEFG (substrate of Met(h)), 10 mM magnesium acetate and γ-^33 P-ATP solution, stop buffer (3% phosphate buffer), washing buffer (75 mM phosphate solution), methanol, Filtermat A membrane, FLT3, VEGFR2, FLT3, VEGFR2, FLT1, FLT4, RET, c-RAF, B-RAF, c-KIT, PDGFRα, PDGFRβ, FGFR2, FGFR1, EphA2, EphB2, SRC, ABL, ALK, Met and other kinases, and the test compounds.
Buffers (8 mM MOPS with pH value of 7.0, 0.2 mM EDTA and 10 mM MnCl2), (5-10 mU) kinases to be tested (FLT3, VEGFR2, FLT1, FLT4, RET, c-RAF, B-RAF, c-KIT, PDGFRα, PDGFRβ, FGFR2, FGFR1, EphA2, EphB2, SRC, ABL, ALK and Met), substrates of kinases to be tested (refer to experimental materials), 10 mM magnesium acetate and γ-^33 P-ATP solution, and test compounds at different concentrations were added to a reaction tube orderly. […] Reaction was terminated with 5 μL 3% phosphate buffer finally, and 10 μL reaction solution was titrated to the Filtermat A membrane; solution was washed for 3 times with 75 mM phosphate solution with each time lasting 5 minutes, and then washed once with methanol. Finally, the Filtermat A membrane was dried, and scintillation counting was performed on the membrane, with scintillation count reflecting the phosphorylation degree of the substrates, so that the activity inhibition of kinase could be characterized.

As for `CC(C)(C)c1cc(NC(=O)Nc2ccc(Sc3ncnc4[nH]ncc34)cc2)no1` [4c-3, 1-(4-(1H-pyrazolopyrimidine-4-sulfydryl)phenyl)-3-(5-tert-butylisoxazol-3-yl)urea], the “Activity inhibition rate Flt3 (h)” value is above 90%. As for `CC(C)n1ncc2c(Oc3ccc(NC(=O)Nc4cc(C(C)(C)C)on4)cc3)ncnc21` [5a-4, 1-(5-tert-butylisoxazol-3-yl)-3-(4-(1-isopropyl-(1H-pyrazolopyrimidine-4-yl)oxy)phenyl)urea], the inhibition at 10 µM (read-out: Activity inhibition rate Flt3 (h)) was above 90%.

The record behind these values is patent publication US9828375B2, “4-position substituted pyrazolopyrimidine derivative, and use thereof in drug preparation” (Guangxi Wuzhou Pharmaceuticals (Group) Co., Ltd., priority 2012, dated 2017).
